Test results reported in patent publication US20230398125A1, “TREATING HEPATITIS” (Albireo AB, priority 2022, published 2023).

Columns and labels:
Human NTCP [1] = molecular target: T1, Human NTCP (Homo sapiens, UniProt Q14973); test: 3H-taurocholic acid uptake in human NTCP-overexpressing cells; type: cell-based; conditions: 3H-taurocholic acid transport
T1 construct: expressed in transfected cells; peptide purchased from Pharmaron
T1 sequence (Q14973 1-349): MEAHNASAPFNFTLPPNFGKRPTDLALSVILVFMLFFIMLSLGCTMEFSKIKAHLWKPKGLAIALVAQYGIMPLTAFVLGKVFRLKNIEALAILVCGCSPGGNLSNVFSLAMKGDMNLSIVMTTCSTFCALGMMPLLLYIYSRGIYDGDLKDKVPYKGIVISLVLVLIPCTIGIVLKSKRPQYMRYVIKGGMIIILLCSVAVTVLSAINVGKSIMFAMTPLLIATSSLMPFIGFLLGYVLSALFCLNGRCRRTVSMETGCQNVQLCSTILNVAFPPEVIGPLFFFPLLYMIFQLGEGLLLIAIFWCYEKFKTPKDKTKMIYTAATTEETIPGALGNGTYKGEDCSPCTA
Procedure: 20,000 cells (Human & Mouse NTCP-overexpressing cells) were seeded in 96-well plate in 100 μL MEM-alpha medium supplemented with 10% FBS containing geneticin (1 mg/mL) and incubated at 37° C. in 5% CO2 for 24 hrs. After incubation, media was decanted from the wells and cells were washed two times with 250 μL of basal MEM-alpha medium (FBS-free). After each wash, plates were tapped against a paper towel to ensure maximum removal of residual media. For Human NTCP (hNTCP), incubation mix was prepared by adding test inhibitor dilutions (3-fold serial dilution in DMSO, 10 concentrations) in MEM-alpha (without FBS) containing 0.3 μM ^3H-taurocholic acid and 7.5 μM cold taurocholic acid (maintaining 0.2% final DMSO concentration). […]
The plates were tapped against a paper towel after every wash to ensure maximum removal of blocking buffer. 100 μL of MicroScint-20 was added to the wells and kept overnight at room temperature before reading the plates in MicroBeta2 liquid Scintillation Counter from PerkinElmer under 3H Test for I/L-BAT protocol (set at 120 seconds reading time per well, with normal plate orientation).
Percentage inhibitions were calculated with respect to the assay controls. […]

Human NTCP [2] = molecular target: T1, Human NTCP; test: [3H]preS1 peptide binding to NTCP-HEK293 cells
Procedure: (§1) Human embryonic kidney (HEK293) cells were stably transfected with human NTCP, C-terminally tagged with the FLAG epitope (here referred to as NTCP-HEK293 cells). Cells were maintained at 37° C., 5% CO2 and 95% humidity in DMEM/F-12 medium (Thermo Fisher Scientific, Waltham, Mass., USA) supplemented with 10% fetal calf serum (Sigma-Aldrich, St. Louis, Mo., USA), 4 mM L-glutamine, and penicillin/streptomycin. HepG2 cells stably transfected with NTCP-FLAG (here referred to as NTCP-HepG2) were cultured under the same conditions in DMEM with all supplements listed above, except for L-glutamine. […]
(§2) Bile acid transport measurements were performed in the NTCP-HEK293 cells with tritium-labelled taurocholic acid (here referred to as [^3H]TC) (20 Ci/mmol, 0.09 mCi/mL, Perkin Elmer, Waltham, USA). […] Cell-associated radioactivity of [^3H]TC or [^3H]preS1 was quantified by liquid scintillation counting in a Packard Microplate Scintillation Counter TopCount NXT (Packard Instrument Company, Meriden, USA). Transport rates and [^3H]preS1 binding were determined in counts per minute (cpm). The mean of the 0% control was subtracted and the net [^3H]TC transport rates and net [^3H]preS1 binding rates, respectively, were expressed as % of control. IC50 values were calculated from quadruplicate determinations by GraphPad Prism 6 (GraphPad, San Diego, Calif., USA). […]

Human NTCP [3] = molecular target: T1, Human NTCP; test: [3H]TC transport in NTCP-HEK293 cells; type: cell-based; conditions: read-out: IC50 [3H]taurocholic acid uptake
Procedure: as §1, §2

Question: Which results are given for `CCCCC1CN(c2ccccc2)c2cc(SC)c(O/C=C(\F)C(=O)O)cc2S(=O)(=O)N1C` (stereo not drawn) [Compound 1, (Z)-3-((3-butyl-2-methyl-7-(methylthio)-1,1-dioxido-5-phenyl-2,3,4,5-tetrahydro-1,2,5-benzothiadiazepin-8-yl)oxy)-2-fluoroacrylic acid]?
Answer: IC50 (Human NTCP [1]): 0.53 ± 0.081 nM; IC50 (Human NTCP [2]): 149 nM; IC50 (Human NTCP [3]): 186 nM
